Measured values: patent US20230027620A1, “PENTAPEPTIDE AND METHODS OF USE THEREOF” (THE BOARD OF TRUSTEES OF THE UNIVERSITY OF ILLINOIS, priority 2019, published 2023)
“Also recorded” adds a separate entry of the source. Starred links: 1 amine or outer side, 2 acyl side, 3 side chain; linkers in the order of their positions; H or OH if unused. Non-standard residues stand in square brackets, D forms with d. No end group written: not given here. (CH2)6 = -(CH2)6- hydrocarbon linking residues between repeats, C(CCC[*:2])CC[*:1]

What was measured:
[1] = test system: epithelial cell migration; assay: In vitro scratch assay, truncation and scrambled peptide series (FIG. 1; cell line not given); format: cell-based; conditions: for scratch (wound) closure rates, relative closure: 80 μM, FIG. 1, vs untreated control
Description: Peptides were tested for efficacy in accelerating scratch closure rates. Negative controls included untreated and multiple scrambled peptide (SP) controls. All peptides were tested at 80 μM concentration. All experiments were performed in triplicate with three technical replicates for each experiment. Statistical significance was determined by one-way ANOYA with Dunnett's post-hoc test. *p<0.05; **p<0.01; ***p<0.001. Relative closure=(% closure of treated sample)/(% closure of Untreated control).
In Vitro Scratch Assay. HCE, HCLE, HELA and MCF-7 cells were cultured in a 24-well plate at 2.5×10^5 (cells/well) seeding density, and were grown to confluence on a 24-well plate. Subsequently, a straight-line scratch mark was made with a sterile P200 pipette tip. The cells were then washed twice with phosphate-buffered saline (PBS) to remove cellular debris. Wounded areas were then treated with the peptides provided in Table 5 at various concentrations in standard medium with reduced serum conditions (0.5% FBS in MEM medium (HCE), growth factor-free K-SFM media (HCLE), 1% FBS in DMEM medium (HeLa) and 0.5% FBS in RPMI 1640 medium (MCF-7)). Scratches were photographed microscopically at 4× magnification (Image Express Micro, Molecular Devices, San Jose, Calif.) every hour over the course of the experiment. The wound area at each time-point was measured using Image J software (Image J 1.47v, NIH, Thornwood, Bethesda, Md.). Relative wound closure was calculated by dividing the closure of the treated wound by that of the untreated wound. For all the experiments including truncated histatin-5, a final concentration of 80 μM was used. PD98059 (Calbiochem, San Diego, Calif.) at final concentration of 50 μM was used as a specific inhibitor of MEK. PD98059 was added to cell cultures at the same time as histatin peptides.
To identify the residues of Hst5 required for epithelial cell migration, serial truncation experiments were performed, progressively deleting residues in Hst5. […] All peptides were tested at 80 μM. […] Thus, the SHRGY (SEQ ID NO:2) sequence is necessary and sufficient to promote epithelial migration rates in in vitro scratch assays.

p-ERK1/2 = assay: Immunofluorescence imaging of p-ERK1/2 in scratched HCE monolayer; format: cell-based, Human; conditions: 80 μM, 45 minutes
Description: Immunofluorescence Imaging. HCE cells were seeded in 8-well chamber slide at 9×10^4 (cells/well) seeding density, and allowed to incubate to form a confluent monolayer. Subsequently, a straight-line scratch mark was made with a sterile P10 pipette tip. The cells were then washed with media to remove cellular debris. Wounded areas were subsequently left untreated or treated with Hst5, SP1 or SP2 at 80 μM concentrations in MEM media with 0.5% FBS for 45 minutes. Cells were then fixed with 4% paraformaldehyde for 30 minutes and permeabilized with 0.1% Triton X-100 for 5 minutes. After washing with PBS, cells were incubated at room temperature for 30 minutes with 5% bovine serum albumin (BSA) and 5% normal goat serum in PBS. Cells were subsequently incubated with primary antibodies diluted in 1% BSA against p-ERK1/2 (1:200) (Cell Signaling, Danver, Mass.) at 4° C. for 16 hours. After three washings with PBS, cells were incubated with fluorescein isothiocyanate-conjugated sheep anti-rabbit IgG antibody (BD Biosciences, San Jose, Calif.) (1:500) diluted in 1% BSA at room temperature for 60 minutes. After extensive washing with PBS, the cells were then stained with 4′,6-diamidino-2-phenylindole (DAPI; (Roche, Mannheim, GE) for 2 minutes for nuclear staining. The cells were mounted in Fluoro gel with Tris buffer (Electron Microscopy Sciences, Hattfield, Pa.) and observed under a confocal microscope (Zeiss LSM 710 Confocal Microscope, Oberkochen, Germany) using a 10× objective.
The level of activation/phosphorylation of ERK with and without wounding and with and without Hst5 application were investigated to determine whether the cellular signaling pathways underpinning the pro-migratory effects of Hst5 were similar to those of Hst1 in other epithelial cell types. Wounding causes an increased in phosphorylated form of ERK1/2 (p-ERK1/2). Immunolocalization was used to determine whether Hst5 application to a scratched sheet of epithelium would affect pERK1/2 levels.

[2] = test system: corneal epithelial wound in C57BLl6J mice; assay: Murine corneal epithelial injury (wound healing) model; format: in vivo; conditions: applied topically to mice injured using a standardized wounding method; summary statement
Description: Wounded areas were treated with Hst5, SHRGY (SEQ ID NO:2) or SP1 peptides (n=7 for each group), each tested at 80 μM concentration. Wound areas at multiple time points were measured using Image J software. […] Statistical significance was determined by a two-way ANOVA with Bonferroni post-hoc test. **P<0.01, ***P<0.001. % Wound area=(Wound area at time X/Wound area at time 0)×100.
Wound Healing Assay. Corneal wounding experiments in mice were conducted in compliance with the Association for Research in Vision and Ophthalmology (ARVO) Statement for the Use of Animals in Ophthalmic and Vision Research. The protocol was approved by the Animal Care & Use Committee of the University of Illinois at Chicago. Twelve-to-nineteen week old C57BLl6J (Jackson Laboratory, Bar Harbor, Me.) mice were anesthetized with intraperitoneal injection of ketamine (100 mg/kg) and xylazine (5 mg/kg). After applying two drops of topical 0.5% proparacaine, a 2.0-mm area of the central epithelium was demarcated using 2-mm disposable biopsy punch and removed by an AlgerBrush II (The Alger Company, Lago Vista, Tex.). In the treatment (n=7) or the control (n=7) group, Histatin=5 (80 μM), SHRGY peptide (SEQ ID NO:2; 80 μM), or SP1 (80 μM) was applied to the cornea three times a day. At 0, 18 and 24 hours, the corneas were stained with fluorescein (FUL-GLO® Fluorescein Sodium ophthalmic strips, Akorn, Lake forest, Ill.) and photographed using a NIKON FS-2 photo-slit lamp with a NIKON D200 camera (Melville, N.Y.). Wound sizes were compared with the baseline for each mouse and the percentages of wound closure was measured using Image J software.
For immunofluorescence, excised whole mouse eye was snap frozen in optimal cutting temperature compound (OCT; (Fisher Healthcare, Galderma, Calif.). The frozen tissues were cut into 10 μm cryosections (ThermoScientific NX50 Cryomicrotome, Waltham, Mass.) and subsequently were mounted on Superfrost plus slides (Thermofisher, Waltham, Mass.). Slides were fixed for 20 minutes in methanol, washed several times with PBS, stained with DAPI for 2 minutes, and further washed with PBS and deionized water. The slides were then mounted in Fluoro gel with Tris buffer (Electron Microscopy Sciences, Hattfield, Pa.) and observed under a confocal microscope (Zeiss LSM 710 Confocal Microscope, Oberkochen, Germany) using a 10× objective.
Thus, Hst5 and SHRGY (SEQ ID NO:2)-containing peptides can enhance wound healing in a well-vetted model of murine corneal epithelial injury.

| Compound | scratch (wound) closure rates, relative closure [1] | also measured |
| --- | --- | --- |
| COc1cccc(-c2cc(=O)c3ccccc3o2)c1N [PD98059] | – | effect of MEK inhibitor co-treatment on Hst5-promoted wound closure ([1]; PD98059 50 μM added at the same time as Hst5): eliminated the effects of Hst5 on promoting wound closure |
| DSHAKRHHGYKRKF [Hst5(1-14)] | no significant increase in wound closure rates | – |
| DSHAKRHHGYKRKFHEKHH [Hst5(1-19)] | no significant increase in wound closure rates | – |
| DSHAKRHHGYKRKFHEKHHSHR [Hst5(1-22)] | no significant increase in wound closure rates | – |
| DSHAKRHHGYKRKFHEKHHSHRG [Hst5(1-23)] | no significant increase in wound closure rates | – |
| DSHAKRHIHGYKRKFHEKHHSH (DSHAKRHHGYKRKFHEKHHSH) [Hst5(1-21)] | no significant increase in wound closure rates | – |
| HSHKEGHHYKRFKRKHHADSHRGY [SP2] | significant increases in scratch closure rates | pERK1/2 immunolocalization / signal intensity (p-ERK1/2): increased pERK1/2 levels to a comparable intensity to Hst5; also recorded: elevated immunolocalization of pERK1/2 |
| RHHGYKRKFHEKHHSHRGY [Hst5(5-24)] | significant increases in scratch closure rates | – |
| RYHGS [SP4] | did not significantly increase wound closure rates | – |
| RYSGH [SP3] | did not significantly increase wound closure rates | – |
| SHDGY [pentapeptide] | – | epithelial migration ([1]; summary statement: immortalized human corneal epithelial cells, immortalized human corneal limbal epithelial cells, HeLa human cells, mouse corneal wounding models): significantly enhance epithelial migration |
| SHRGY-(CH2)6-SHRGY-(CH2)6-SHRGY-(CH2)6-SHRGY (SHRGY[(CH2)6]SHRGY[(CH2)6]SHRGY[(CH2)6]SHRGY) [multimer of SHRGY composed of 4 repeating units] | significant increases in scratch closure rates | corneal healing [2]: significantly improve corneal healing |
| TNQQK [SP5] | no significant improvement in the wound closure rates | – |
| YHGHRHFRKHKKHKEAHSYDRGSH [SP1] | – | pERK1/2 immunolocalization / signal intensity (p-ERK1/2): did not elicit the same increase in pERK1/2 immunolocalization |
| c-SHRGY: cyclized SHRGY peptide, prepared using a linker/spacer composed of 6-(Fmoc-amino)caproic acid, 6-(Fmoc-amino)hexanoic acid (cyclo(SHRGY); not fully specified (C-terminus)) | significant increases in scratch closure rates | – |
